From US20180117047A1, “DRUG FOR PREVENTING AND/OR TREATING DEMENTIA” (NATIONAL UNIVERSITY CORPORATION TOTTORI UNIVERSITY, priority 2015, published 2018) come the findings set out here.

Where “and” joins values, the source holds several entries; their conditions need not be identical. Equal values may be shown once. Entries after “also recorded” stand apart in the source; their conditions may differ.

For experiment [1], the system named is Tg(APPSWE)2576KhaTg(Prnp-MAPT*P301L)JNPL3HImc Alzheimer's disease model double transgenic mice. Description: Number of nerve cells having AT8 immunostaining-positive neurofibrillary tangles in Alzheimer's disease model double transgenic mice. The format is in vivo, mouse.
For experiment [2] the test system is unchanged. Kind of experiment: Number and size of senile plaques in cerebrum coronal cut surfaces of Alzheimer's disease model double transgenic mice (HE, Aβ40, Aβ42 staining). The format is in vivo, mouse.
Setting [3] is: individual mouse, 5 mg/kg oral every day from one year old, sampled at 730 to 745 days old, 5 mg/kg.
Setting [4] is: individual mouse, diameter 50 μm or smaller, 5 mg/kg oral every day from one year old, sampled at 730 to 745 days old, 5 mg/kg.
[5] abbreviates: individual mouse, diameter 100 μm or larger, 5 mg/kg oral every day from one year old, sampled at 730 to 745 days old, 5 mg/kg.
[6] abbreviates: individual mouse, diameter between 50 μm and 100 μm, 5 mg/kg oral every day from one year old, sampled at 730 to 745 days old, 5 mg/kg.

In the case of `N#Cc1cc(-c2nc3c(O)ncnc3s2)ccc1Oc1ccccc1` [compound A, 5-(7-hydroxythiazolo[5,4-d]pyrimidin-2-yl)-2-phenoxy-benzonitrile], the “Tangle number as percentage of that of the control group” value in experiment [1] (FIG. 10, 5 mg/kg oral daily) was 36%. Also, the “Number of nerve cells having AT8 immunostaining-positive neurofibrillary tangles per one cerebrum coronal cut surface” value in experiment [1] (group average±standard deviation, 4 mice, 5 mg/kg oral daily about one year, control 209.9±46.0) came out at 77.0±67.1. Moreover, in experiment [1] (setting [3]), the “Number of nerve cells having AT8 immunostaining-positive neurofibrillary tangles, amygdaloid nucleus maximum diameter coronal cut surface” value was 103 and 175 and 13 and 18; the “Number of nerve cells having AT8 immunostaining-positive neurofibrillary tangles, hypothalamus coronal cut surface” value is 149 and 119 and 26 and 13. Besides, in experiment [1] (p=0.016, Mann-Whitney U test, amygdaloid nucleus and hypothalamus, 5 mg/kg oral daily, FIG. 9, 10, 5 mg/kg), the “Number of nerve cells having AT8 immunostaining-positive neurofibrillary tangles compared with the control group” value is given as “significantly smaller; also recorded: markedly suppresses; also recorded: fewer; also recorded: significantly lower”. Moreover, the “Large-sized senile plaques in the hippocampus compared with placebo control group (photographs)” value in experiment [2] (HE staining, Aβ40 and Aβ42 immunostaining, FIG. 6 vs FIG. 5) was “clearly fewer”. Moreover, in experiment [2] (group average±standard deviation, 4 mice, 5 mg/kg oral daily about one year, control 26.9±12.3), the “Number of large-sized senile plaques per one cerebrum coronal cut surface” value was 11.1±5.9. Moreover, the “Number of medium-sized senile plaques per one cerebrum coronal cut surface” value in experiment [2] (group average±standard deviation, 4 mice, 5 mg/kg oral daily about one year, control 44.3±14.5) is recorded as 30.9±20.5. Besides, the “Number of small-sized senile plaques per one cerebrum coronal cut surface” value in experiment [2] (group average±standard deviation, 4 mice, 5 mg/kg oral daily about one year, control 88.3±35.2) turned out to be 104.4±36.8. Further, in experiment [2] (setting [4]), the “Number of small senile plaques, entorhinal cortex coronal cut surface” value was 96 and 78 and 110 and 164; the “Number of small senile plaques, mammillary body coronal cut surface” value was 113 and 38 and 106 and 130. Further, in experiment [2] (setting [5]), the “Number of large-sized senile plaques, entorhinal cortex coronal cut surface” value was 16 and 10 and 11 and 2; the “Number of large-sized senile plaques, mammillary body coronal cut surface” value is 21 and 12 and 5. In addition, in experiment [2] (setting [6]), the “Number of medium-sized senile plaques, entorhinal cortex coronal cut surface” value is 78 and 24 and 31 and 14; the “Number of medium-sized senile plaques, mammillary body coronal cut surface” value is 33 and 12 and 25 and 30. For the same molecule, in experiment [2] (p=0.013, Mann-Whitney U test, 5 mg/kg oral daily, FIG. 7, 5 mg/kg), the “Number of large-sized senile plaques compared with the control group” value was “significantly smaller; also recorded: significantly suppresses; also recorded: especially suppressed”. Moreover, in experiment [2] (p=0.036, Mann-Whitney U test, 5 mg/kg oral daily, FIG. 7, 5 mg/kg), the “Number of medium-sized senile plaques compared with the control group” value was “significantly smaller; also recorded: significantly suppresses; also recorded: especially suppressed”. For the same molecule, the “Number of small senile plaques compared with the control group” value in experiment [2] (p=0.400, Mann-Whitney U test, 5 mg/kg oral daily, FIG. 7) is recorded as “Any significant difference was not observed”.
